{"source": "paper PMC12362585", "about": "“Development and Preclinical Characterization of [^18F]H3-2406 and [^18F]H3-2407 for Positron Emission Tomography Imaging of the Histamine Subtype‑3 Receptor” (Journal of Medicinal Chemistry, 2025)", "key": {"[1]": {"assay": "In vitro stability in serum, humans", "assay_type": "in vitro ADME", "conditions": "human serum, 37 °C, 30, 60 and 90 min", "method": "(§1) To assess the stability of [^18F]3, in vitro radioactivity analyses were conducted following 30-, 60- and 90 min coincubation of the radioligand in the serum and liver microsomes from mice, nonhuman primates (NHPs), and humans (Figure ).\n(§2) Serum from mice, NHPs, and humans were warmed to room temperature, 15 MBq of [^18F]3 was added to 0.4 mL of each species’ serum. The mixtures were incubated at 37 °C and 0.1 mL of mixture was transferred into 0.2 mL cold acetonitrile at 30, 60, and 90 min. The samples were vortexed for 15 s and then centrifuged at 10,000g for 5 min. The supernatant was analyzed using analytical HPLC (Agilent 1100 series HPLC system on Phenomenex Luna C-18 column (4.6 × 150 mm), mobile phase 30% CH3CN/0.1% TFA in water, flow:1 mL/min). For microsomes studies, a mixture of microsomes (0.5 mg/mL), [^18F]3 (15 MBq), 0.35 mL of PBS, 0.05 mL of NADPH regenerating system A, and 0.01 mL of NADPH regenerating system B were incubated at 37 °C. The subsequent steps followed the same procedure as described above."}, "sigma-1 receptor [2]": {"molecular_target": "sigma-1 receptor (Homo sapiens, UniProt Q99720)", "sequence (Q99720 whole entry, species assumed)": "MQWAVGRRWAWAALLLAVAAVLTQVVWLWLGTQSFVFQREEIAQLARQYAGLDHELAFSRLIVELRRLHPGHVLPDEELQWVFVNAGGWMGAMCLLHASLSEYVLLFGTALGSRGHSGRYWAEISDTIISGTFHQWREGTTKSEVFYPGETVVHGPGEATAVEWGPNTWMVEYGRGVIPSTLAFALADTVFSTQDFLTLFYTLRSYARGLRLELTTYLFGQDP", "assay": "sigma 1 binding assay", "conditions": "ratio of sigma-1 K i to H3R K i"}, "sigma-1 receptor [3]": {"molecular_target": "T1, sigma-1 receptor (Mus musculus, UniProt O55242)", "T1 construct": "we conducted additional in vivo PET imaging studies using NE-100; from tissue; host or cells: brain of living mice", "T1 sequence (O55242 whole entry)": "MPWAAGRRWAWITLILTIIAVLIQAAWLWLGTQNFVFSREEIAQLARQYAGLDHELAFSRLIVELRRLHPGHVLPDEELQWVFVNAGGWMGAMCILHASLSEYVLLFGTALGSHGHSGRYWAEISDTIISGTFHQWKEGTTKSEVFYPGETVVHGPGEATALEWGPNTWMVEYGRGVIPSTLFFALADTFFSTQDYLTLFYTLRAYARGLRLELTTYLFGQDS", "assay": "PET imaging in mice with NE-100 or ABT-239 blocking", "assay_type": "in vivo"}, "[4]": {"assay": "In vitro stability in serum, NHPs", "assay_type": "in vitro ADME, nonhuman primates (NHPs)", "conditions": "NHP serum, 37 °C, 30, 60 and 90 min", "method": "as §1, §2"}, "[5]": {"assay": "Log D by shake-flask method", "assay_type": "physicochemical", "conditions": "n-octanol/PBS", "method": "To evaluate the binding affinities of compounds 1–9, competitive radioligand binding assays were conducted using [^3H]-AZ13582963 [4-(1S,2S)-2-(4-cyclobutylpiperazine-1-carbonyl)-cyclopropyl)-N-methyl-[2-^3 H]-benzamide]. […]. […]. Further, ACD Percepta predictions indicated these compounds are likely to cross the blood-brain barrier (BBB), as indicated by a log BB > −1 and a multiparameter optimization (MPO) score >4.0. High selectivity toward H3R over other CNS targets is essential for effective H3R PET imaging. Therefore, off-target screenings of compounds 2, 3, and 4 were conducted against various CNS receptors, G protein-coupled receptors (GPCRs), transporters, and ion channels at 10 μM (Figure S1). […]. Sigma-1 receptors, crucial for ion channel function and associated with learning, memory, and pain, , have shown synergy with H3R antagonists, including PF-03654746 and ABT-239, potentially enhancing in vivo efficacy.\nThe lipophilicity was measured according to previously reported methods. , In brief, PBS and n-octanol were premixed prior to the experiment. A solution containing 0.2 MBq of [^18F]3 or [^18F]4, PBS (3 mL) and n-octanol (3 mL) were prepared in a vial and vortexed for 5 min. The PBS and n-octanol layers were then separated and transferred into a centrifuge tube, followed centrifugation at 12,000 rpm for 5 min. Then PBS (0.5 mL) and n-octanol (0.05 mL) were weight and measured the radioactivity on a γ counter (PerkinElmer Wizard). The Log D values of [ ^18F]3 and [^18F]4 were calculated using the following formula: LogD=Log[(radioactivityn‐octanol/weightn‐octanol)/(radioactivityPBS/weightPBS)]"}, "H3R": {"molecular_target": "T2, H3R (Rattus norvegicus, UniProt Q9QYN8)", "T2 construct": "The brains of SD rat were sectioned into 15 μm slices; from tissue; host or cells: SD rat brain sections", "T2 sequence (Q9QYN8 whole entry)": "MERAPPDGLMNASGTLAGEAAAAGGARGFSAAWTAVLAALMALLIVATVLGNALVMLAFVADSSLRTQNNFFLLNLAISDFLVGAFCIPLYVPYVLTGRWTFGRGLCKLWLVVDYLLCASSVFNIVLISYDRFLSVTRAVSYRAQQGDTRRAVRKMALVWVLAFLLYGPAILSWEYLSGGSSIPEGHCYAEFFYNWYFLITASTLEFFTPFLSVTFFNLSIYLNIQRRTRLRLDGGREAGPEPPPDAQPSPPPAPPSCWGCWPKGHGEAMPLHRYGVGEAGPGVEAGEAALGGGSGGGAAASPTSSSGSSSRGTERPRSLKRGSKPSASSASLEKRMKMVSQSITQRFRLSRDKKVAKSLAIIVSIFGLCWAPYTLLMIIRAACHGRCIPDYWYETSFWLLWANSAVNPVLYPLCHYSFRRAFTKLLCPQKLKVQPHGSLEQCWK", "assay": "In vitro autoradiography on rat brain sections", "assay_type": "binding, SD rat", "method": "To validate the target specificity and selectivity, in vitro autoradiography experiments were conducted using [^18F]3 and [^18F]4 on rat brain sections. […] Furthermore, pretreatment with unlabeled compound 3 (10 μM) led to a signal reduction of over 90% in the brain. […] This discrepancy is likely attributable to additional off-target binding of [^18F]3, which is further supported by high uptake in the cerebellum – a region with low H3R expression. […] The high uptake in the cerebellum may be attributed to nonspecific binding to unidentified CNS targets. […] Nonetheless, the results support further in vivo PET evaluation to better understand their binding profiles and evaluate their potential for H3R imaging – particularly in regions with low sigma-1 abundance.\nThe ARG was measured according to previously reported methods. , The brains of SD rat were sectioned into 15 μm slices and stored in −80 °C. For each experiment, the brain slices allowed them to warm to room temperature and then incubated in Tris-HCl buffer (50 mM, containing 0.1% bovine serum albumin) for 10 min. The slices were incubated with [^18F]3 or [^18F]4 (0.037 MBq/mL) in the presence of either DMSO (baseline study), GSK189254 (10 μM, blocking study), and unlabeled 3 or 4 (10 μM, blocking study) at room temperature for 30 min. Following incubation, the brain slices were washed three times with cold Tris-HCl buffer (50 mM) for 5 min each, and then dipped in water 2 times for 5 s. The brain slices were dried under cold air and exposed to a Phosphor Screen (BAS IP MS2025, Cytiva) for 2 h. The radioactivity and imaging were captured using an Amersham Typhoon 5 (Cytiva) and the data were analyzed using ImageJ software."}, "[6]": {"tested_on": "P-glycoprotein (P-gp) and breast cancer resistance protein (BCRP)", "assay": "PET imaging in mice pretreated with elacridar", "assay_type": "in vivo", "conditions": "elacridar 3 mg/kg, 20 min prior to radioligand injection", "method": "To determine whether [^18F]3 is actively effluxed by BBB transporters such as P-glycoprotein (P-gp) and breast cancer resistance protein (BCRP), we conducted additional PET scans in mice pretreated with elacridar (3 mg/kg, a dual P-gp/BCRP inhibitor) 20 min prior to radioligand injection.\nFigure S4. Mice PET imaging studies (0−60 minutes) of [ 18F]3. (A) TACs of [ 18F]3 in the whole-brain under baseline and elacridar-blocking (3 mg/kg) conditions; (B) Area under curve of [ 18F]3 in the whole-brain; All data were referred to as mean ± SD, n = […]\nThe molar activities of [18F]3 and [18F]4 were determined using calibration curves, which were generated by plotting the concentration of the authentic standard compounds 3 or 4 against their respective flow injection analysis peak area ratios ([…]). Based on these calibration curves, the molar activities of [18F]3 and [18F]4 were calculated and reported as GBq/µmol.\nFigure S5. Calibration curves of compounds 3 (A) and 4 (B). The standard curve was generated by plotting the HPLC UV signal area against concentrations of the compounds 3 or 4. Linear regression analysis was performed to determine the correlation between peak area and […]"}, "[7]": {"assay": "In vitro stability in liver microsomes, humans", "assay_type": "in vitro ADME", "conditions": "90 min", "method": "as §1, §2"}}}
{"compound": "O=C([C@H]1C[C@@H]1c1ccc([18F])cc1)N1CCN(C2CCCC2)CC1", "note": "[[^18F]3]", "values": [{"measurement": "parent compound remaining intact in serum", "setting": "[1]", "value": "over 95%"}, {"measurement": "selectivity of H3R over sigma-1", "setting": "sigma-1 receptor [2]", "value": 69, "unit": "fold"}, {"measurement": "effect of ABT-239 preinjection on brain signal", "setting": "sigma-1 receptor [3]; ABT-239 (dual H3R and sigma-1 receptor antagonist) 3 mg/kg", "value": "near-complete signal blockade"}, {"measurement": "effect of NE-100 blocking on brain uptake", "setting": "sigma-1 receptor [3]; NE-100 (selective sigma-1 receptor antagonist) 3 mg/kg", "value": "partial reduction"}, {"measurement": "parent compound remaining intact in serum", "setting": "[4]", "value": "over 95%"}, {"measurement": "logD", "setting": "[5]", "value": 2.82}, {"measurement": "reduction in radioactivity across brain regions, GSK189254 blocking", "setting": "H3R; GSK189254 10 μM", "value": "43.6–86.0%"}, {"measurement": "signal reduction, self-blocking with unlabeled compound", "setting": "H3R; unlabeled 3 or 4 at 10 μM", "value": "over 90%"}, {"measurement": "change of brain uptake after elacridar pretreatment", "setting": "[6]", "value": "did not significantly change"}, {"measurement": "parent fraction in liver microsomes", "setting": "[7]", "value": 95, "unit": "%"}]}
